Measurements from patent US8003372B2, “Device for performing cell assays” (The University Court of the University of Glasgow, priority 2002, dated 2011).

Test system: adult ventricular myocytes
Experimental: Single cardiac myocytes were isolated from rabbit ventricles by collagenase digestion (D. A. Eisner, C. G. Nichols, S. C. O'Neill, G. L. Smith and M. Valdeomillos, The effects of metabolic inhibition on intracellular calcium an pH in isolated rat ventricular cells, Journal of Physiology, 411, (1989), 393-418) and kept in Base Krebs Solution, containing 120 mM NaCl, 20 mM sodium N-hydroxyethylpiperazine-N′-2-ethane sulphonic acid, 5.4 mM KCl, 0.52 mM NaH2PO4, 3.5 mM MgCl2.6H2O, 20 mM Taurine, 10 mM Creatine, 100 mM Glucose, 0.1% BSA, 0.1 mM CaCl2. The pH was adjusted to 7.4 with 100 mM NaOH.
Sarcomere length and intracellular Ca^2+ concentration ([Ca^2+]i) were monitored simultaneous using the fluorescence-contractility System of Ionoptix (Milton, Mass., USA). Ventricular myocytes were loaded with Fluo-3 by incubation for 30 min in 20 μM Fluo-3 AM solution (Molecular Probes). […] To measure the possible change in extracellular pH during field stimulation, 10 μM BCECF (Molecular Probes) was added to the bath and the emission was recorded using the same filter set as for Fluo-3. […]
Symmetric biphasic rectangular pulses were generated across the electrodes. […] A voltage-current converter was used to read the current response of one electrode together with the corresponding voltage into a 20 MHz 4 channel acquisition card (PCI-9812, Adlink, Taiwan). A TTL signal synchronous to the biphasic pulses was fed into the reader of the PMT-current to mark each pulse arrival on the fluorescence trace for off-line event averaging. After filling the microchambers with electrolyte (buffer), the current evoked on the individual stimulation electrodes was monitored to assure the ionic connection between the microelectrodes in each chamber, prior to the addition of cardiac muscle cells. The measured current was integrated to give a measure of the total amount of net-charge added to the microchamber, and the polarization of the electrode surface. […]

N#CC(C#N)=NNc1ccc(OC(F)(F)F)cc1 [FCCP]
Ca2+ transients evoked at 0.5 Hz (1 μM FCCP, 10 minutes after the 50 min time point of continual stimulation, 100 pL chamber): ceased almost completely | response of the cell to electrical stimuli (Ca2+ transient) (1 μM FCCP, after 50 min continual stimulation at alternating frequencies of 0.5 and 1.0 Hz, 100 pL chamber): no longer responded to every single stimulus with a Ca^2+ transient of normal amplitude | excitability of the cell after washing out (after washing out FCCP, changing the buffer and a 5 min rest interval): regained its excitability
